Measurements as given in patent publication US20190374554A1, “USE OF OXYGENATED CHOLESTEROL SULFATES (OCS) TO TREAT INFLAMMATORY SKIN DISEASE AND SKIN LESIONS” (Virginia Commonwealth University, priority 2016, published 2019).
Where “and” joins values, the source holds several entries; their conditions need not be identical. Equal entries are not always repeated.

Experiment: Infusion compatibility: 25HC3S diluted in 0.9% sodium chloride infusion bag and eluted through infusion sets (potency, osmolality, pH, appearance)
Type: physicochemical
Description: A physical and chemical compatibility study was conducted at a 30 mg, 48 mg and 300 mg 25HC3S dose in 5% dextrose and 0.9% sodium chloride infusion bags. Descriptions of the two kinds of infusion sets tested with 25HC3S product diluted in 5% dextrose and 0.9% sodium chloride are listed in Table 15. The tubing in catalog number 2H8480 infusion set was composed of polyvinylchloride (PVC), while the tubing in catalog number 2C8858 was polyethylene lined except for a short pump segment (approximately 12 inches) which was composed of PVC.
25HC3S for Injection and Vehicle for 25HC3S for Injection, that had been stored at 2-8° C. for approximately 16 months, were used for the compatibility study. After constitution, 30 mg (1.0 mL of constituted product), 48 mg (1.6 mL of constituted product) or 300 mg (10 mL of constituted product) were added to 100 mL infusion bags of 5% dextrose and 0.9% sodium chloride, mixed thoroughly, and stored for 24 hours at room temperature and at 2-8° C. […] Taking into consideration the overfill per infusion bag and the additional volume introduced by adding the constituted 25HC3S product to each bag, the expected concentrations of 25HC3S were 0.28 mg/mL, 0.44 mg/mL, and 2.56 mg/mL in the infusion bags. Two kinds of infusion sets were then attached to the drug containing infusion bags, and the entire contents were eluted through the infusion sets at approximately 50 mL/hour at room temperature. Samples were collected from the 25HC3S prepared infusion bags at T=0 and at 24 hours, and from the total eluent passed through the infusion sets, and tested for 25HC3S concentration using HPLC. Solution visual appearance, osmolality (using method USP<785>), and pH (using method USP<791>) were also measured on the collected samples.

[1] = 0.9% sodium chloride bag, approx. 0.28 mg/mL 25HC3S
[2] = 0.9% sodium chloride bag, approx. 0.44 mg/mL 25HC3S
[3] = 0.9% sodium chloride bag, approx. 2.56 mg/mL 25HC3S
[4] = 0.9% sodium chloride, approx. 0.28 mg/mL, bag 24 h at 2-8° C., Baxter 2C8858
[5] = 0.9% sodium chloride, approx. 0.28 mg/mL, bag 24 h at 2-8° C., Baxter 2H8480
[6] = 0.9% sodium chloride, approx. 0.28 mg/mL, bag 24 h at 25° C., Baxter 2C8858
[7] = 0.9% sodium chloride, approx. 0.28 mg/mL, bag 24 h at 25° C., Baxter 2H8480
[8] = 0.9% sodium chloride, approx. 0.44 mg/mL, bag 24 h at 2-8° C., Baxter 2C8858
[9] = 0.9% sodium chloride, approx. 0.44 mg/mL, bag 24 h at 2-8° C., Baxter 2H8480
[10] = 0.9% sodium chloride, approx. 0.44 mg/mL, bag 24 h at 25° C., Baxter 2C8858
[11] = 0.9% sodium chloride, approx. 0.44 mg/mL, bag 24 h at 25° C., Baxter 2H8480
[12] = 0.9% sodium chloride, approx. 2.56 mg/mL, bag 24 h at 2-8° C., Baxter 2C8858
[13] = 0.9% sodium chloride, approx. 2.56 mg/mL, bag 24 h at 2-8° C., Baxter 2H8480
[14] = 0.9% sodium chloride, approx. 2.56 mg/mL, bag 24 h at 25° C., Baxter 2C8858
[15] = 0.9% sodium chloride, approx. 2.56 mg/mL, bag 24 h at 25° C., Baxter 2H8480
[16] = sodium chloride, approximately 0.28 mg/mL 25HC3S
[17] = sodium chloride, approximately 0.44 mg/mL 25HC3S
[18] = sodium chloride, approximately 2.56 mg/mL 25HC3S

C[C@H](CCCC(C)(C)O)[C@H]1CC[C@H]2[C@@H]3CC=C4C[C@@H](OS(=O)(=O)[O-])CC[C@]4(C)[C@H]3CC[C@]12C.[Na+] [Formulation 25HC3S, 5-cholesten-3, 25-diol, 3-sulfate]
24 Hours at 2-8° C. Concentration [1]: 0.275 mg/mL
24 Hours at 2-8° C. Osmolality [1]: 276 mmol/kg
24 Hours at 2-8° C. pH [1]: 5.87 and 5.99
24 Hours at 25° C. Concentration [1]: 0.272 mg/mL and 0.274 mg/mL
24 Hours at 25° C. Osmolality [1]: 275 mmol/kg and 277 mmol/kg
24 Hours at 25° C. pH [1]: 5.93 and 5.92
T = 0 Conc. [1]: 0.273 mg/mL and 0.274 mg/mL and 0.275 mg/mL
T = 0 Osmolality [1]: 278 mmol/kg and 277 mmol/kg
T = 0 pH [1]: 6.39 and 6.43 and 6.45 and 6.40
24 Hours at 2-8° C. % Remaining Compared to T = 0 [2]: (100.0%)
24 Hours at 2-8° C. Concentration [2]: 0.434 mg/mL and 0.425 mg/mL
24 Hours at 2-8° C. Osmolality [2]: 281 mmol/kg
24 Hours at 2-8° C. pH [2]: 7.43 and 7.19
24 Hours at 25° C. % Remaining Compared to T = 0 [2]: (100.0%)
24 Hours at 25° C. Concentration [2]: 0.434 mg/mL and 0.424 mg/mL
24 Hours at 25° C. Osmolality [2]: 280 mmol/kg
24 Hours at 25° C. pH [2]: 7.33 and 7.41
T = 0 Conc. [2]: 0.434 mg/mL and 0.424 mg/mL and 0.425 mg/mL
T = 0 Osmolality [2]: 277 mmol/kg and 279 mmol/kg and 284 mmol/kg and 280 mmol/kg
T = 0 pH [2]: 7.30 and 7.43 and 7.21 and 7.44
24 Hours at 2-8° C. Concentration [3]: 2.510 mg/mL and 2.520 mg/mL
24 Hours at 2-8° C. Osmolality [3]: 283 mmol/kg
24 Hours at 2-8° C. pH [3]: 5.93 and 5.96
24 Hours at 25° C. Concentration [3]: 2.500 mg/mL and 2.525 mg/mL
24 Hours at 25° C. Osmolality [3]: 282 mmol/kg
24 Hours at 25° C. pH [3]: 6.01 and 5.86
T = 0 Conc. [3]: 2.450 mg/mL and 2.530 mg/mL and 2.525 mg/mL
T = 0 Osmolality [3]: 282 mmol/kg and 281 mmol/kg
T = 0 pH [3]: 6.20 and 6.10 and 6.07 and 6.11
After Storage in Infusion Bag and Collection from Infusion Set % Remaining Compared to T = 0 [4]: (100.0%)
After Storage in Infusion Bag and Collection from Infusion Set Concentration [4]: 0.275 mg/mL
After Storage in Infusion Bag and Collection from Infusion Set Osmolality [4]: 276 mmol/kg
After Storage in Infusion Bag and Collection from Infusion Set pH [4]: 5.78
After Storage in Infusion Bag and Collection from Infusion Set % Remaining Compared to T = 0 [5]: (100.4%)
After Storage in Infusion Bag and Collection from Infusion Set Concentration [5]: 0.275 mg/mL
After Storage in Infusion Bag and Collection from Infusion Set Osmolality [5]: 277 mmol/kg
After Storage in Infusion Bag and Collection from Infusion Set pH [5]: 5.81
After Storage in Infusion Bag and Collection from Infusion Set % Remaining Compared to T = 0 [6]: (100.0%)
After Storage in Infusion Bag and Collection from Infusion Set Concentration [6]: 0.274 mg/mL
After Storage in Infusion Bag and Collection from Infusion Set Osmolality [6]: 276 mmol/kg
After Storage in Infusion Bag and Collection from Infusion Set pH [6]: 5.83
After Storage in Infusion Bag and Collection from Infusion Set % Remaining Compared to T = 0 [7]: (99.6%)
After Storage in Infusion Bag and Collection from Infusion Set Concentration [7]: 0.272 mg/mL
After Storage in Infusion Bag and Collection from Infusion Set Osmolality [7]: 276 mmol/kg
After Storage in Infusion Bag and Collection from Infusion Set pH [7]: 5.78
After Storage in Infusion Bag and Collection from Infusion Set % Remaining Compared to T = 0 [8]: (100.2%)
After Storage in Infusion Bag and Collection from Infusion Set Concentration [8]: 0.426 mg/mL
After Storage in Infusion Bag and Collection from Infusion Set Osmolality [8]: 281 mmol/kg
After Storage in Infusion Bag and Collection from Infusion Set pH [8]: 7.16
After Storage in Infusion Bag and Collection from Infusion Set % Remaining Compared to T = 0 [9]: (100.0%)
After Storage in Infusion Bag and Collection from Infusion Set Concentration [9]: 0.434 mg/mL
After Storage in Infusion Bag and Collection from Infusion Set Osmolality [9]: 282 mmol/kg
After Storage in Infusion Bag and Collection from Infusion Set pH [9]: 7.13
After Storage in Infusion Bag and Collection from Infusion Set % Remaining Compared to T = 0 [10]: (100.0%)
After Storage in Infusion Bag and Collection from Infusion Set Concentration [10]: 0.424 mg/mL
After Storage in Infusion Bag and Collection from Infusion Set Osmolality [10]: 288 mmol/kg
After Storage in Infusion Bag and Collection from Infusion Set pH [10]: 7.20
After Storage in Infusion Bag and Collection from Infusion Set % Remaining Compared to T = 0 [11]: (99.8%)
After Storage in Infusion Bag and Collection from Infusion Set Concentration [11]: 0.433 mg/mL
After Storage in Infusion Bag and Collection from Infusion Set Osmolality [11]: 286 mmol/kg
After Storage in Infusion Bag and Collection from Infusion Set pH [11]: 7.09
After Storage in Infusion Bag and Collection from Infusion Set % Remaining Compared to T = 0 [12]: (99.8%)
After Storage in Infusion Bag and Collection from Infusion Set Concentration [12]: 2.520 mg/mL
After Storage in Infusion Bag and Collection from Infusion Set Osmolality [12]: 283 mmol/kg
After Storage in Infusion Bag and Collection from Infusion Set pH [12]: 5.70
After Storage in Infusion Bag and Collection from Infusion Set % Remaining Compared to T = 0 [13]: (100.0%)
After Storage in Infusion Bag and Collection from Infusion Set Concentration [13]: 2.530 mg/mL
After Storage in Infusion Bag and Collection from Infusion Set Osmolality [13]: 283 mmol/kg
After Storage in Infusion Bag and Collection from Infusion Set pH [13]: 5.72
After Storage in Infusion Bag and Collection from Infusion Set % Remaining Compared to T = 0 [14]: (99.6%)
After Storage in Infusion Bag and Collection from Infusion Set Concentration [14]: 2.520 mg/mL
After Storage in Infusion Bag and Collection from Infusion Set Osmolality [14]: 279 mmol/kg
After Storage in Infusion Bag and Collection from Infusion Set pH [14]: 5.83
After Storage in Infusion Bag and Collection from Infusion Set % Remaining Compared to T = 0 [15]: (100.4%)
After Storage in Infusion Bag and Collection from Infusion Set Concentration [15]: 2.460 mg/mL
After Storage in Infusion Bag and Collection from Infusion Set Osmolality [15]: 283 mmol/kg
After Storage in Infusion Bag and Collection from Infusion Set pH [15]: 5.81
deviation of 25HC3S concentrations from the initial T=0 time point (0.9% sodium chloride, after 24 hours at room temperature and at 2-8° C., and after elution through infusion sets): ≤ 2.0%
osmolality trend (sodium chloride drug containing solutions): no consistent trends over time in the infusion bag or after elution through the infusion sets
solution visual appearance (sodium chloride, all three concentrations, after 24 hours in bags and after elution): remained as clear and colorless solutions
decrease of pH over 24 hours in the infusion bags [16]: ~0.5 pH unit
pH change after elution through the infusion sets [16]: decrease by approximately a tenth of a pH
pH change after elution through the infusion sets [17]: decrease by a few tenths of a pH
pH trend over time in the infusion bags [17]: no consistent trends over time in the infusion bags
pH change after elution through the infusion sets [18]: drop by a few tenths of a pH
pH change over time in the infusion bags [18]: slight decrease by a tenth of a pH
